These results are taken from ChEMBL document CHEMBL5365454, “Strong Binding of C-Glycosylic1,2-Thiodisaccharides to Galectin-3─Enthalpy-Driven Affinity Enhancement by Water-Mediated Hydrogen Bonds” (J Med Chem, 2023).

Test [1] addresses Galectin-3 (Homo sapiens) (UniProt P17931). Nature of the test: Binding affinity to recombinant human galectin-3 carbohydrate recognition domain expressed in Escherichia coli BL21 (DE3) cells assessed as change in entropy by Nano-ITC analysis.
Test [2] has the same target. Nature of the test: Binding affinity to recombinant human galectin-3 carbohydrate recognition domain expressed in Escherichia coli BL21 (DE3) cells assessed as change in enthalpy by Nano-ITC analysis.
Test [3] shares this target. Nature of the test: Binding affinity to recombinant human galectin-3 carbohydrate recognition domain expressed in Escherichia coli BL21 (DE3) cells assessed as gibbs free energy change by Nano-ITC analysis.

Sequence of Galectin-3 (Homo sapiens) (P17931 whole entry, the tested form may be a part): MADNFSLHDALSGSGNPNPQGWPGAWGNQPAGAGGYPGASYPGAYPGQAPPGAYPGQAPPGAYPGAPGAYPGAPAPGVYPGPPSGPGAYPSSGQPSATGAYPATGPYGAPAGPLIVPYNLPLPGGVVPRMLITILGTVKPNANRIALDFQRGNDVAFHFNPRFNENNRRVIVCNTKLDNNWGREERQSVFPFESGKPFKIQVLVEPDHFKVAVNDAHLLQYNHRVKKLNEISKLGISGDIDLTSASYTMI

In the case of `NC(=O)[C@@H]1O[C@H](CO)[C@@H](O)[C@H](O)[C@@H]1S[C@@H]1O[C@H](CO)[C@H](O)[C@H](O)[C@H]1O`, the -TdeltaS in test [1] was found to be 1.15 kcal/mol. The deltaH in test [2] was -7.74 kcal/mol.

In the case of `OC[C@H]1O[C@@H](S[C@@H]2CO[C@H](CO)[C@H](O)[C@@H]2O)[C@H](O)[C@@H](O)[C@H]1O`, the -TdeltaS in test [1] turned out to be 0.0956 kcal/mol. The deltaH in test [2] is -6.48 kcal/mol.

Consider `OC[C@H]1O[C@@H](S[C@@H]2O[C@H](CO)[C@H](O)[C@H](O)[C@H]2O)[C@H](O)[C@@H](O)[C@H]1O`, for which, in test [1], the -TdeltaS is -1.21 kcal/mol. The deltaH in test [2] was -4.73 kcal/mol.

For `NC(=O)[C@@H]1O[C@H](CO)[C@H](O)[C@H](O)[C@@H]1S[C@@H]1O[C@H](CO)[C@H](O)[C@H](O)[C@H]1O`, the -TdeltaS in test [1] turned out to be 0.0478 kcal/mol.

Turning to LACTOSE, ANHYDROUS, the deltaG in test [3] was -5.95 kcal/mol. Also, in test [1], the -TdeltaS was -0.485 kcal/mol. Moreover, the deltaH in test [2] was -5.47 kcal/mol.

In the case of `COC(=O)[C@@H]1O[C@H](CO)[C@H](O)[C@H](O)[C@@H]1S[C@@H]1O[C@H](CO)[C@H](O)[C@H](O)[C@H]1O`, the -TdeltaS in test [1] worked out at 1.24 kcal/mol. Further, the deltaH in test [2] was -7.72 kcal/mol.
